# Laboratory results from patent publication US12384771B2, “Pleuromutilin derivative containing thiazole-pyridine benzyl quaternary ammonium salt side chain and preparation method and use thereof” (SHAANXI UNIVERSITY OF SCIENCE AND TECHNOLOGY, priority 2022, dated 2025).
# Where a name gives a salt, the structure may show the parent alone.
# Key:
# [1] = system: Staphylococcus epidermidis ATCC 12228; test: MIC, microbroth dilution, standard strains; assay type: cell-based; settings: ATCC12228, ATCC 12228, read-out: Minimum inhibitory concentration
# Description: (§1) The minimum inhibitory concentration (MIC) of the pleuromutilin derivative containing thiazole-pyridine benzyl quaternary ammonium salt side chain was tested with moxifloxacin as a positive control (purchased from Shanghai Macklin Biochemical Technology Co., Ltd.) using a microbroth dilution method.
# (§2) Standard strains include gram-positive bacteria: Staphylococcus epidermidis ATCC 12228, Staphylococcus aureus ATCC 29213, ATCC 25923 and methicillin-resistant Staphylococcus aureus ATCC 33591; gram-negative bacteria: Salmonella ATCC 14028, Acinetobacter baumannii ATCC 19606, Escherichia coli ATCC 25922 and CMCC 44103, all the strains were purchased from the American Type Culture Collection.
# [2] = system: Escherichia coli ATCC 25922; test: MIC, microbroth dilution, standard strains; assay type: cell-based; settings: ATCC25922, ATCC 25922, read-out: Minimum inhibitory concentration
# Description: as §1, §2
# [3] = system: Escherichia coli CMCC 44103; test: MIC, microbroth dilution, standard strains; assay type: cell-based; settings: CMCC44103, CMCC 44103, read-out: Minimum inhibitory concentration
# Description: as §1, §2
# [4] = system: Staphylococcus aureus ATCC 29213; test: MIC, microbroth dilution, standard strains; assay type: cell-based; settings: ATCC29213, ATCC 29213, read-out: Minimum inhibitory concentration
# Description: as §1, §2
# [5] = system: methicillin-resistant Staphylococcus aureus ATCC 33591; test: MIC, microbroth dilution, standard strains; assay type: cell-based; settings: ATCC33591, ATCC 33591, read-out: Minimum inhibitory concentration
# Description: as §1, §2
# [6] = system: Acinetobacter baumannii ATCC 19606; test: MIC, microbroth dilution, standard strains; assay type: cell-based; settings: ATCC19606, ATCC 19606, read-out: Minimum inhibitory concentration
# Description: as §1, §2
# [7] = system: Staphylococcus aureus ATCC 25923; test: MIC, microbroth dilution, standard strains; assay type: cell-based; settings: ATCC25923, ATCC 25923, read-out: Minimum inhibitory concentration
# Description: as §1, §2
# Salmonella ATCC 14028 = test: MIC, microbroth dilution, standard strains; assay type: cell-based; settings: ATCC14028, ATCC 14028, read-out: Minimum inhibitory concentration
# Description: as §1, §2
# physchem = settings: thermodynamic from solid
# Description: Experimental method: representative compounds 2, 4 and 7 were selected for solubility determination, and retapamulin hydrochloride was used as a control. 1 mg of each sample was taken and quantitatively dissolved in a 10 mL volumetric flask, and the absorption peak area was measured by a high-performance liquid chromatography; then, the saturated solutions of the representative compounds 2, 4 and 7 and the control drug retapamulin were diluted 10-fold, and the absorption peak area was determined by HPLC; their respective solubility was obtained by calculating the absorption peak area.
# The experimental instrument was Shimadzu LC-16, the chromatographic column was Hypersil C18 ODS (4.6×250 mm×5 μm), the flow rate was 1.0 mL/min, the detection wavelength was 300 nm, and the mobile phase was 0.05 mol/L of aqueous acetic acid solution:acetonitrile=30:70.
# [8] = system: multidrug-resistant Pseudomonas aeruginosa (MDR-PA) 18-993; test: MIC, clinical drug-resistant bacteria; assay type: cell-based; settings: MDR-PA 18-993, read-out: Minimum inhibitory concentration against clinical drug-resistant bacteria
# Description: (§3) The minimum inhibitory concentration (MIC) of the pleuromutilin derivative containing thiazole-pyridine benzyl quaternary ammonium salt side chain was tested with moxifloxacin as a positive control (purchased from Shanghai Macklin Biochemical Technology Co., Ltd.) using a microbroth dilution method. At the same time, the pleuromutilin derivative containing thiazole-pyridine benzyl quaternary ammonium salt side chain of the invention was compared with the marketed pleuromutilin antibiotics, such as retapamulin (purchased from Nanjing Chemlin Chemical Industry Co., Ltd.), tiamulin (purchased from Shanghai Yuanye Bio-Technology Co., Ltd) and valnemulin (purchased from Shanghai Acmec Biochemical Co., Ltd), in order to screen out pleuromutilin derivatives with better activity.
# (§4) Clinical resistant bacteria include multidrug-resistant Pseudomonas aeruginosa (MDR-PA) 18-993, 18-756 and 18-126, multidrug-resistant Klebsiella pneumoniae (MDR-KP) 18-893, 18-754 and 18-1482, methicillin-resistant Staphylococcus aureus (MRSA) 18-171, 18-209 and 18-575, vancomycin-resistant Enterococcus faecalis (VRE) 18-94, 18-80 and 18-507, and carbapenem-resistant Acinetobacter baumannii (CR-AB) 18-184, 18-560 and 18-882, all the clinical drug-resistant strains were from Huashan Hospital, Fudan University.
# [9] = system: carbapenem-resistant Acinetobacter baumannii (CR-AB) 18-560; test: MIC, clinical drug-resistant bacteria; assay type: cell-based; settings: CR-AB 18-560, read-out: Minimum inhibitory concentration against clinical drug-resistant bacteria
# Description: as §3, §4
# [10] = system: multidrug-resistant Pseudomonas aeruginosa (MDR-PA) 18-126; test: MIC, clinical drug-resistant bacteria; assay type: cell-based; settings: MDR-PA 18-126, read-out: Minimum inhibitory concentration against clinical drug-resistant bacteria
# Description: as §3, §4
# [11] = system: vancomycin-resistant Enterococcus faecalis (VRE) 18-507; test: MIC, clinical drug-resistant bacteria; assay type: cell-based; settings: VRE 18-507; read-out: Minimum inhibitory concentration against clinical drug-resistant bacteria
# Description: as §3, §4
# [12] = system: multidrug-resistant Klebsiella pneumoniae (MDR-KP) 18-893; test: MIC, clinical drug-resistant bacteria; assay type: cell-based; settings: MDR-KP 18-893, read-out: Minimum inhibitory concentration against clinical drug-resistant bacteria
# Description: as §3, §4
# [13] = system: methicillin-resistant Staphylococcus aureus (MRSA) 18-575; test: MIC, clinical drug-resistant bacteria; assay type: cell-based; settings: MRSA 18-575, read-out: Minimum inhibitory concentration against clinical drug-resistant bacteria
# Description: as §3, §4
# [14] = system: multidrug-resistant Klebsiella pneumoniae (MDR-KP) 18-754; test: MIC, clinical drug-resistant bacteria; assay type: cell-based; settings: MDR-KP 18-754, read-out: Minimum inhibitory concentration against clinical drug-resistant bacteria
# Description: as §3, §4
# [15] = system: vancomycin-resistant Enterococcus faecalis (VRE) 18-94; test: MIC, clinical drug-resistant bacteria; assay type: cell-based; settings: VRE 18-94; read-out: Minimum inhibitory concentration against clinical drug-resistant bacteria
# Description: as §3, §4
# [16] = system: multidrug-resistant Pseudomonas aeruginosa (MDR-PA) 18-756; test: MIC, clinical drug-resistant bacteria; assay type: cell-based; settings: MDR-PA 18-756, read-out: Minimum inhibitory concentration against clinical drug-resistant bacteria
# Description: as §3, §4
# [17] = system: methicillin-resistant Staphylococcus aureus (MRSA) 18-209; test: MIC, clinical drug-resistant bacteria; assay type: cell-based; settings: MRSA 18-209, read-out: Minimum inhibitory concentration against clinical drug-resistant bacteria
# Description: as §3, §4
# [18] = system: vancomycin-resistant Enterococcus faecalis (VRE) 18-80; test: MIC, clinical drug-resistant bacteria; assay type: cell-based; settings: VRE 18-80; read-out: Minimum inhibitory concentration against clinical drug-resistant bacteria
# Description: as §3, §4
# [19] = system: carbapenem-resistant Acinetobacter baumannii (CR-AB) 18-184; test: MIC, clinical drug-resistant bacteria; assay type: cell-based; settings: CR-AB 18-184, read-out: Minimum inhibitory concentration against clinical drug-resistant bacteria
# Description: as §3, §4
# [20] = system: methicillin-resistant Staphylococcus aureus (MRSA) 18-171; test: MIC, clinical drug-resistant bacteria; assay type: cell-based; settings: MRSA 18-171, read-out: Minimum inhibitory concentration against clinical drug-resistant bacteria
# Description: as §3, §4
# [21] = system: multidrug-resistant Klebsiella pneumoniae (MDR-KP) 18-1482; test: MIC, clinical drug-resistant bacteria; assay type: cell-based; settings: MDR-KP 18-1482, read-out: Minimum inhibitory concentration against clinical drug-resistant bacteria
# Description: as §3, §4
# [22] = system: carbapenem-resistant Acinetobacter baumannii (CR-AB) 18-882; test: MIC, clinical drug-resistant bacteria; assay type: cell-based; settings: CR-AB 18-882, read-out: Minimum inhibitory concentration against clinical drug-resistant bacteria
# Description: as §3, §4
# [23] = pH 1.5, simulated gastric fluid
MIC [1] [µg/mL],MIC [2] [µg/mL],MIC [3] [µg/mL],MIC [4] [µg/mL],MIC [5] [µg/mL],MIC [6] [µg/mL],MIC [7] [µg/mL],MIC (Salmonella ATCC 14028) [µg/mL],solubility (physchem; organic solvent or mixture) [µg/mL],solubility (physchem; [23]) [µg/mL],"solubility (physchem; pH 7, water) [µg/mL]",MIC [8] [µg/mL],MIC [9] [µg/mL],MIC [10] [µg/mL],MIC [11] [µg/mL],MIC [12] [µg/mL],MIC [13] [µg/mL],MIC [14] [µg/mL],MIC [15] [µg/mL],MIC [16] [µg/mL],Structure (SMILES),other results
1,0.0625,0.5,0.0625,1,1,0.0625,2,13200,2760,2020,128,> 128,64,> 128,16,> 128,32,> 128,128,"C=C[C@]1(C)C[C@@H](OC(=O)CSc2nc(-c3cc[n+](Cc4ccc(C)cc4)cc3)cs2)[C@]2(C)[C@H](C)CC[C@]3(CCC(=O)[C@H]32)[C@@H](C)[C@@H]1O [Compound 2, 1-(4-Methylbenzyl)-4-(2-((2-((8-hydroxy-4,7,9,12-tetramethyl-3-oxo-7-vinyldecahydro-4,9a-propancyclopent[8]cyclen-5-yl)oxy)-2-oxoethyl)thio)thiazol-4-yl)pyridyl bromide salt]",MIC [17]: 128 µg/mL; MIC [18]: 2 µg/mL; MIC [19]: 16 µg/mL; MIC [20]: 4 µg/mL; MIC [21]: 64 µg/mL; MIC [22]: 8 µg/mL
1,0.5,1,0.5,1,2,0.5,0.5,11900,3120,2320,64,> 128,64,> 128,64,> 128,32,> 128,> 128,"C=C[C@]1(C)C[C@@H](OC(=O)CSc2nc(-c3cc[n+](Cc4ccc(OC)cc4)cc3)cs2)[C@]2(C)[C@H](C)CC[C@]3(CCC(=O)[C@H]32)[C@@H](C)[C@@H]1O [Compound 4, 1-(4-(methoxy)benzyl)-4-(2-(8-hydroxy-4,7,9,12-tetramethyl-3-oxo-7-vinyldecahydro-4,9a-propancyclopent[8]cyclen-5-yl)oxy)-2-oxoethyl)thiazol-4-yl)pyridyl bromide salt]",MIC [17]: 128 µg/mL; MIC [18]: 2 µg/mL; MIC [19]: 64 µg/mL; MIC [20]: 16 µg/mL; MIC [21]: 64 µg/mL; MIC [22]: 8 µg/mL
32,16,32,64,64,8,128,16,,,,,,,,,,,,,"C=C[C@]1(C)C[C@@H](OC(=O)CSc2nc(-c3cc[n+](Cc4cc(F)cc(F)c4)cc3)cs2)[C@]2(C)[C@H](C)CC[C@]3(CCC(=O)[C@H]32)[C@@H](C)[C@@H]1O [Compound 15, 1-(3,5-difluorobenzyl)-4-(2-(8-hydroxy-4,7,9,12-tetramethyl-3-oxo-7-vinyldecahydro-4,9a-propancyclopent[8]cyclen-5-yl)oxy)-2-oxoethyl)thiazol-4-yl)pyridyl bromide salt]",
